Values of other authors, collected in patent US9969773B2, “Polymers, pharmaceutical compositions and methods of synthesizing the same” (NEW YORK UNIVERSITY, priority 2014, dated 2018).

half-life in serum: ~5 min
SMILES: CC[C@H](C)[C@H](NC(=O)[C@H](CCC(=O)O)NC(=O)[C@H](CO)NC(=O)[C@@H](NC(=O)[C@@H](N)CO)C(C)C)C(=O)N[C@@H](CCC(N)=O)C(=O)N[C@@H](CC(C)C)C(=O)N[C@@H](CCSC)C(=O)N[C@@H](Cc1cnc[nH]1)C(=O)N[C@@H](CC(N)=O)C(=O)N[C@@H](CC(C)C)C(=O)NCC(=O)N[C@@H](CCCCN)C(=O)N[C@@H](Cc1cnc[nH]1)C(=O)N[C@@H](CC(C)C)C(=O)N[C@@H](CC(N)=O)C(=O)N[C@@H](CO)C(=O)N[C@@H](CCSC)C(=O)N[C@@H](CCC(=O)O)C(=O)N[C@@H](CCCN=C(N)N)C(=O)N[C@H](C(=O)N[C@@H](CCC(=O)O)C(=O)N[C@@H](Cc1c[nH]c2ccccc12)C(=O)N[C@@H](CC(C)C)C(=O)N[C@@H](CCCN=C(N)N)C(=O)N[C@@H](CCCCN)C(=O)N[C@@H](CCCCN)C(=O)N[C@@H](CC(C)C)C(=O)N[C@@H](CCC(N)=O)C(=O)N[C@@H](CC(=O)O)C(=O)N[C@H](C(=O)N[C@@H](Cc1cnc[nH]1)C(=O)N[C@@H](CC(N)=O)C(=O)N[C@@H](Cc1ccccc1)C(=O)O)C(C)C)C(C)C [PTH (1-34), parathyroid hormone (1-34)]
